Our source for the GI % values is paper PMC7717600, “Novel [(N-alkyl-3-indolylmethylene)hydrazono]oxindoles arrest cell cycle and induce cell apoptosis by inhibiting CDK2 and Bcl-2: synthesis, biological evaluation and in silico studies” (Journal of Enzyme Inhibition and Medicinal Chemistry, 2020).

In the first experiment the test system is HS 578T.
Test: not given
Conditions: 10 μM.
As to `C=CCn1cc(C=NN=C2C(=O)Nc3ccccc32)c2ccccc21` [Compound 10a], the GI % entry was “– (Only GI % higher than 10% are shown)”.
Same read-out and setting: the value for `C=CCn1cc(C=NN=C2C(=O)Nc3c(F)cccc32)c2ccccc21` [Compound 10c] was “– (Only GI % higher than 10% are shown)”.
`C=CCn1cc(C=NN=C2C(=O)Nc3ccc(Cl)cc32)c2ccccc21` [Compound 10d]: the GI % result is “– (Only GI % higher than 10% are shown)”.

The next experiment deals with SK-MEL-5.
Test: not given
The note with it: SK-MEL-5, 10 μM.
As to `C=CCn1cc(C=NN=C2C(=O)Nc3ccccc32)c2ccccc21` [Compound 10a], the GI % entry was “– (Only GI % higher than 10% are shown)”.
In the case of `C=CCn1cc(C=NN=C2C(=O)Nc3c(F)cccc32)c2ccccc21` [Compound 10c], the GI % result is given as “– (Only GI % higher than 10% are shown)”.
The same measure, in the same setting: with `C=CCn1cc(C=NN=C2C(=O)Nc3ccc(Cl)cc32)c2ccccc21` [Compound 10d] the entry was “– (Only GI % higher than 10% are shown)”.

The subject of the next experiment is NCI-H322M. In words: NCI SRB screening. The note with it: 10 μM.
As to `C=CCn1cc(C=NN=C2C(=O)Nc3ccccc32)c2ccccc21` [Compound 10a], the GI % result is reported as “– (Only GI % higher than 10% are shown)”.
For the compound `C=CCn1cc(C=NN=C2C(=O)Nc3c(F)cccc32)c2ccccc21` [Compound 10c], the GI % result was “– (Only GI % higher than 10% are shown)”.
On the same count and under the same terms, the value for `C=CCn1cc(C=NN=C2C(=O)Nc3ccc(Cl)cc32)c2ccccc21` [Compound 10d] was “– (Only GI % higher than 10% are shown)”.

For another experiment, the system named is MDA-MB-231/ATCC.
Test: not given
The note with it: MDA-MB-231, 10 μM.
`C=CCn1cc(C=NN=C2C(=O)Nc3ccccc32)c2ccccc21` [Compound 10a]: the GI % entry is “– (Only GI % higher than 10% are shown)”.
The same measure, in the same setting: with `C=CCn1cc(C=NN=C2C(=O)Nc3c(F)cccc32)c2ccccc21` [Compound 10c] the entry was “– (Only GI % higher than 10% are shown)”; with `C=CCn1cc(C=NN=C2C(=O)Nc3ccc(Cl)cc32)c2ccccc21` [Compound 10d], “– (Only GI % higher than 10% are shown)”.

A further experiment relates to TK-10.
Test: not given
The note with it: TK-10, 10 μM.
As for `C=CCn1cc(C=NN=C2C(=O)Nc3ccccc32)c2ccccc21` [Compound 10a], the GI % entry is “– (Only GI % higher than 10% are shown)”.
On to `C=CCn1cc(C=NN=C2C(=O)Nc3c(F)cccc32)c2ccccc21` [Compound 10c], for which the GI % entry is listed as “– (Only GI % higher than 10% are shown)”.
`C=CCn1cc(C=NN=C2C(=O)Nc3ccc(Cl)cc32)c2ccccc21` [Compound 10d]: the GI % result is on record as “– (Only GI % higher than 10% are shown)”.

The test system of another experiment is MALME-3M.
Test: not given
Conditions: 10 μM.
Consider `C=CCn1cc(C=NN=C2C(=O)Nc3ccccc32)c2ccccc21` [Compound 10a], for which the GI % turned out to be 26%.
The same measure, in the same setting: the value for `C=CCn1cc(C=NN=C2C(=O)Nc3c(F)cccc32)c2ccccc21` [Compound 10c] was “– (Only GI % higher than 10% are shown)”; that for `C=CCn1cc(C=NN=C2C(=O)Nc3ccc(Cl)cc32)c2ccccc21` [Compound 10d] was “– (Only GI % higher than 10% are shown)”.

Another experiment deals with UACC-62.
Test: not given
The note with it: UACC-62, 10 μM.
With `C=CCn1cc(C=NN=C2C(=O)Nc3ccccc32)c2ccccc21` [Compound 10a], the GI % worked out at 25%.
Same read-out and setting: the value for `C=CCn1cc(C=NN=C2C(=O)Nc3c(F)cccc32)c2ccccc21` [Compound 10c] was 15%; that for `C=CCn1cc(C=NN=C2C(=O)Nc3ccc(Cl)cc32)c2ccccc21` [Compound 10d] was 19%.

A further experiment deals with NCI-H460. The experiment is described as follows: NCI SRB screening. Format: cell-based, human. The note with it: NCI-H460, 10 μM.
In the case of `C=CCn1cc(C=NN=C2C(=O)Nc3ccccc32)c2ccccc21` [Compound 10a], the GI % entry is given as “– (Only GI % higher than 10% are shown)”.
Regarding `C=CCn1cc(C=NN=C2C(=O)Nc3c(F)cccc32)c2ccccc21` [Compound 10c], the GI % entry is “– (Only GI % higher than 10% are shown)”.
`C=CCn1cc(C=NN=C2C(=O)Nc3ccc(Cl)cc32)c2ccccc21` [Compound 10d]: the GI % result is “– (Only GI % higher than 10% are shown)”.

In a further experiment the test system is A549/ATCC.
Test: not given
Conditions: 10 μM.
With `C=CCn1cc(C=NN=C2C(=O)Nc3ccccc32)c2ccccc21` [Compound 10a], the GI % result is “– (Only GI % higher than 10% are shown)”.
`C=CCn1cc(C=NN=C2C(=O)Nc3c(F)cccc32)c2ccccc21` [Compound 10c]: the GI % result was “– (Only GI % higher than 10% are shown)”.
Still for that read-out and setting: with `C=CCn1cc(C=NN=C2C(=O)Nc3ccc(Cl)cc32)c2ccccc21` [Compound 10d] the entry was “– (Only GI % higher than 10% are shown)”.

The subject of another experiment is OVCAR-4.
Test: not given
The note with it: OVCAR-4, 10 μM.
As to `C=CCn1cc(C=NN=C2C(=O)Nc3ccccc32)c2ccccc21` [Compound 10a], the GI % is reported as 27%.
For `C=CCn1cc(C=NN=C2C(=O)Nc3c(F)cccc32)c2ccccc21` [Compound 10c], the GI % amounted to 22%.
Consider `C=CCn1cc(C=NN=C2C(=O)Nc3ccc(Cl)cc32)c2ccccc21` [Compound 10d], for which the GI % entry was “– (Only GI % higher than 10% are shown)”.

Another experiment deals with SF-539.
Test: not given
Conditions: SF-539, 10 μM.
Consider `C=CCn1cc(C=NN=C2C(=O)Nc3ccccc32)c2ccccc21` [Compound 10a], for which the GI % entry is reported as “– (Only GI % higher than 10% are shown)”.
Still for that read-out and setting: the value for `C=CCn1cc(C=NN=C2C(=O)Nc3c(F)cccc32)c2ccccc21` [Compound 10c] was “– (Only GI % higher than 10% are shown)”; that for `C=CCn1cc(C=NN=C2C(=O)Nc3ccc(Cl)cc32)c2ccccc21` [Compound 10d] was “– (Only GI % higher than 10% are shown)”.

The next experiment deals with M14. In words: NCI SRB screening. It is filed as cell-based. The note with it: M14, 10 μM.
As for `C=CCn1cc(C=NN=C2C(=O)Nc3ccccc32)c2ccccc21` [Compound 10a], the GI % came to 12%.
Take `C=CCn1cc(C=NN=C2C(=O)Nc3c(F)cccc32)c2ccccc21` [Compound 10c]: the GI % result is given as “– (Only GI % higher than 10% are shown)”.
The same measure, in the same setting: the value for `C=CCn1cc(C=NN=C2C(=O)Nc3ccc(Cl)cc32)c2ccccc21` [Compound 10d] was “– (Only GI % higher than 10% are shown)”.

For another experiment, the system named is HCT-15.
Test: not given
The note with it: HCT-15, 10 μM.
Take `C=CCn1cc(C=NN=C2C(=O)Nc3ccccc32)c2ccccc21` [Compound 10a]: the GI % is on record as 15%.
The compound `C=CCn1cc(C=NN=C2C(=O)Nc3c(F)cccc32)c2ccccc21` [Compound 10c] yielded a GI % of 22%.
Same read-out and setting: the value for `C=CCn1cc(C=NN=C2C(=O)Nc3ccc(Cl)cc32)c2ccccc21` [Compound 10d] was 10%.

The test system of the next experiment is CCRF-CEM.
Test: not given
Conditions: 10 μM.
Take `C=CCn1cc(C=NN=C2C(=O)Nc3ccccc32)c2ccccc21` [Compound 10a]: the GI % entry is recorded as “– (Only GI % higher than 10% are shown)”.
In turn, `C=CCn1cc(C=NN=C2C(=O)Nc3c(F)cccc32)c2ccccc21` [Compound 10c] returned a GI % of 17%.
Consider `C=CCn1cc(C=NN=C2C(=O)Nc3ccc(Cl)cc32)c2ccccc21` [Compound 10d], for which the GI % entry is “– (Only GI % higher than 10% are shown)”.

For the next experiment, the system named is HOP-92.
Test: not given
Conditions: HOP-92, 10 μM.
Regarding `C=CCn1cc(C=NN=C2C(=O)Nc3ccccc32)c2ccccc21` [Compound 10a], the GI % result is “– (Only GI % higher than 10% are shown)”.
With `C=CCn1cc(C=NN=C2C(=O)Nc3c(F)cccc32)c2ccccc21` [Compound 10c], the GI % entry was “– (Only GI % higher than 10% are shown)”.
In the case of `C=CCn1cc(C=NN=C2C(=O)Nc3ccc(Cl)cc32)c2ccccc21` [Compound 10d], the GI % result was “– (Only GI % higher than 10% are shown)”.

Another experiment deals with SW-620.
Test: not given
The note with it: SW-620, 10 μM.
For `C=CCn1cc(C=NN=C2C(=O)Nc3ccccc32)c2ccccc21` [Compound 10a], the GI % entry is given as “– (Only GI % higher than 10% are shown)”.
Consider `C=CCn1cc(C=NN=C2C(=O)Nc3c(F)cccc32)c2ccccc21` [Compound 10c], for which the GI % entry is reported as “– (Only GI % higher than 10% are shown)”.
Consider `C=CCn1cc(C=NN=C2C(=O)Nc3ccc(Cl)cc32)c2ccccc21` [Compound 10d], for which the GI % entry is recorded as “– (Only GI % higher than 10% are shown)”.

The next experiment relates to OVCAR-8.
Test: not given
Conditions: OVCAR-8, 10 μM.
The compound `C=CCn1cc(C=NN=C2C(=O)Nc3ccccc32)c2ccccc21` [Compound 10a] had a GI % of 15%.
On the same count and under the same terms, with `C=CCn1cc(C=NN=C2C(=O)Nc3c(F)cccc32)c2ccccc21` [Compound 10c] the figure was 11%; with `C=CCn1cc(C=NN=C2C(=O)Nc3ccc(Cl)cc32)c2ccccc21` [Compound 10d], “– (Only GI % higher than 10% are shown)”.

Another experiment deals with OVCAR-5.
Test: not given
The note with it: OVCAR-5, 10 μM.
Regarding `C=CCn1cc(C=NN=C2C(=O)Nc3ccccc32)c2ccccc21` [Compound 10a], the GI % result is recorded as “– (Only GI % higher than 10% are shown)”.
Consider `C=CCn1cc(C=NN=C2C(=O)Nc3c(F)cccc32)c2ccccc21` [Compound 10c], for which the GI % entry is “– (Only GI % higher than 10% are shown)”.
On the same count and under the same terms, with `C=CCn1cc(C=NN=C2C(=O)Nc3ccc(Cl)cc32)c2ccccc21` [Compound 10d] the entry was “– (Only GI % higher than 10% are shown)”.

Another experiment relates to SK-MEL-2.
Test: not given
Conditions: SK-MEL-2, 10 μM.
Regarding `C=CCn1cc(C=NN=C2C(=O)Nc3ccccc32)c2ccccc21` [Compound 10a], the GI % result is given as “– (Only GI % higher than 10% are shown)”.
With `C=CCn1cc(C=NN=C2C(=O)Nc3c(F)cccc32)c2ccccc21` [Compound 10c], the GI % entry is reported as “– (Only GI % higher than 10% are shown)”.
On to `C=CCn1cc(C=NN=C2C(=O)Nc3ccc(Cl)cc32)c2ccccc21` [Compound 10d], for which the GI % entry was “– (Only GI % higher than 10% are shown)”.
